Laboratory results: ChEMBL document CHEMBL6120968, “Discovery of Thiadiazoleamide Derivatives as Potent, Selective, and Orally Available Antagonists Disrupting Androgen Receptor Homodimer” (J Med Chem, 2024)
Activity calls are given as the source filed them. The rule behind the calls is not given here.

Key:
hERG (KCNH2) = hERG (KCNH2) (Homo sapiens, UniProt Q12809); test: (§1) Inhibition of hERG at 10 uM relative to control; type: toxicity
Androgen receptor = target: T1, Androgen receptor (Homo sapiens, UniProt P10275); test: Antagonist activity at Androgen receptor in human LNCaP cells transfected with ARR2PB-eGFP incubated for 3 days by synergy H1 microplate reader analysis; type: cell-based
T1 sequence (P10275 whole entry): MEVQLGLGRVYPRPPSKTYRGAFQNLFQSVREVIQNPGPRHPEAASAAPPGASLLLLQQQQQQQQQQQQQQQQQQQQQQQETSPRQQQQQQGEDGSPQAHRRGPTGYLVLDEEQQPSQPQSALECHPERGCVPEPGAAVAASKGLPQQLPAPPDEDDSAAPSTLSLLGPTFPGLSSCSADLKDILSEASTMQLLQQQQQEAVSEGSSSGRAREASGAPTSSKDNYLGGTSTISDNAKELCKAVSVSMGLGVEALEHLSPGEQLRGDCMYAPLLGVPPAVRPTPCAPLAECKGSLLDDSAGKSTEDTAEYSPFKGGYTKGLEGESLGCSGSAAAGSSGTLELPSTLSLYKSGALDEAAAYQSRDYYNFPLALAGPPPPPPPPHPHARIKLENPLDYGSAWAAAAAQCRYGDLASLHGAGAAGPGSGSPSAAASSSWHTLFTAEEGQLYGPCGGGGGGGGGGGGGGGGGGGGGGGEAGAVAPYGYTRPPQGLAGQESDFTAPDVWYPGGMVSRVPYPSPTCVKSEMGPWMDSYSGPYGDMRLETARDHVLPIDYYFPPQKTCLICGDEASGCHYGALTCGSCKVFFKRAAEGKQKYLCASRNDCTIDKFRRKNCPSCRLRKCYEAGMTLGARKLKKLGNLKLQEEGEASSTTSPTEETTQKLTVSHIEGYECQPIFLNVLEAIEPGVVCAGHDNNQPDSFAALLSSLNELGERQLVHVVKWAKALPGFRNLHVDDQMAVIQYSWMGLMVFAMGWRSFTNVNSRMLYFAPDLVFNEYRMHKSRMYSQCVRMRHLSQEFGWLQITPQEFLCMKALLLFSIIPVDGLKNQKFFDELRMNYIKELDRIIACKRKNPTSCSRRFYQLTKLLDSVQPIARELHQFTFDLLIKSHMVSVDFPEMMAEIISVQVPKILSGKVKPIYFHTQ

LNCaP [1] = test: Antiproliferative activity against human LNCaP cells assessed as inhibition of cell proliferation incubated for 3 days by MTT assay; type: functional, cell-based; settings: 72 h
LNCaP [2] = test: Downregulation of FKBP5 level in DHT-induced human LNCaP cells at 0.1 to 1 uM incubated for 24 hrs by Western blot analysis; type: functional, cell-based; settings: dose 0.1-1 µM
[3] = Antagonist activity at Androgen receptor F877L/T878A double mutant in human HEK293T cells cotransfected with MMTV-luc and renilla plasmid incubated for 24 hrs by Dual luciferase assay; type: cell-based; settings: HEK-293T
[4] = target: Voltage-gated inwardly rectifying potassium channel KCNH2 (Homo sapiens, UniProt Q12809); test: as §1; type: toxicity; settings: 10 µM
[5] = Downregulation of PSA level in human LNCaP cells transfected with ARR2PB-eGFP incubated for 24 hrs by Western blot analysis
LNCaP C4-2B = test: Antiproliferative activity against human LNCaP C4-2B cells assessed as survival rate incubated for 3 days by MTT assay; settings: 72 h
LNCaP C4-2 = test: Antiproliferative activity against human LNCaP C4-2 cells assessed as survival rate incubated for 3 days by MTT assay; settings: LNCaP C4-2, 72 h
LNCaP [6] = test: Antiproliferative activity against human LNCaP cells assessed as survival rate incubated for 3 days by MTT assay; settings: 72 h
NIH3T3 = test: Antiproliferative activity against mouse 3T3 cells assessed as reduction in cell viability incubated for 3 days by MTT assay; type: toxicity, cell-based; settings: nih3t3, 72 h, time 3 day

hERG (KCNH2), sequence (Q12809 whole entry): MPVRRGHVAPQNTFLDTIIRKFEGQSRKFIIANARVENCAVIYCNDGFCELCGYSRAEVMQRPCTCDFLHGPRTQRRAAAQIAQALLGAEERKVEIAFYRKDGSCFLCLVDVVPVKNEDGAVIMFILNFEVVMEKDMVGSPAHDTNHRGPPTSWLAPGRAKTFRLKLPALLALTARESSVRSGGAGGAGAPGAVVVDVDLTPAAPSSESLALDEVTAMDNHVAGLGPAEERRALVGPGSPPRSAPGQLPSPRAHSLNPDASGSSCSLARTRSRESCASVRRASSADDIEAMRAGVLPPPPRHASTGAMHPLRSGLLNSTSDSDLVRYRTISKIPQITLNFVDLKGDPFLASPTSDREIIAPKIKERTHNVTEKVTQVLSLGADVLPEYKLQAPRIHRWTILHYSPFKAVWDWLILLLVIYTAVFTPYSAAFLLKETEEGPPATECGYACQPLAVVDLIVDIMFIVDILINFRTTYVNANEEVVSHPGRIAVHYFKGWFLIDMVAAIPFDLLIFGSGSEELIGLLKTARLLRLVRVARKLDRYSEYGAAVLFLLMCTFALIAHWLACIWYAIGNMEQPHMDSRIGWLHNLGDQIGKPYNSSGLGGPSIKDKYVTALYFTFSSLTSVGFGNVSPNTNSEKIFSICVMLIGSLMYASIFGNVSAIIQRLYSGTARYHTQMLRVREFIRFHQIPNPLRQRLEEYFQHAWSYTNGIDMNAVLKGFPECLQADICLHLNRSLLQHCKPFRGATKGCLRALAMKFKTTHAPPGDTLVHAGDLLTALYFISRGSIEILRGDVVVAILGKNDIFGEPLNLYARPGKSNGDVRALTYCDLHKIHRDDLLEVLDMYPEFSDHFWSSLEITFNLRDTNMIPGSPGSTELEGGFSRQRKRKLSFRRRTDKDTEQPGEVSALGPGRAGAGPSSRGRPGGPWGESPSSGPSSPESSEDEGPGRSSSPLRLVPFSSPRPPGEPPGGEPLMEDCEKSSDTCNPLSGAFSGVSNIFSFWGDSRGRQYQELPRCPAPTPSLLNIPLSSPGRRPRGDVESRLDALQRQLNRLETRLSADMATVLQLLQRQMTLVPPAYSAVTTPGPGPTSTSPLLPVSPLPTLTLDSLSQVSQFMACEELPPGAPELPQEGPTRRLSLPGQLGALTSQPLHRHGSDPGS
Voltage-gated inwardly rectifying potassium channel KCNH2, sequence (Q12809 whole entry): as above

Row | SMILES | IC50 (Androgen receptor) [nM] | further results
1 | Cc1oc(-c2cccc(C(F)(F)F)c2)cc1C(=O)Nc1nc(CN2CCC(CO)CC2)ns1 | 160 | Activity (LNCaP [2]): Active
2 | CC(O)c1cc(C(=O)N[C@@H](C)Cn2ccc(-c3ccc(C#N)c(Cl)c3)n2)n[nH]1 (some centres undefined) [DAROLUTAMIDE] | – | IC50 [3]: 670 nM
3 | Cc1oc(-c2cccc(C(F)(F)F)c2Cl)cc1C(=O)Nc1nc(CN2CCOCC2)ns1 | 860 | –
4 | Cc1oc(-c2cccc(C(F)(F)F)c2)cc1C(=O)Nc1nc(CN2CCN(C)CC2)ns1 | 74 | –
5 | Cc1oc(-c2cccc(C(F)(F)F)c2)cc1C(=O)Nc1nc(CN2CCCC2)ns1 | 61 | –
6 | Cc1oc(-c2cccc(C(F)(F)F)c2)cc1C(=O)Nc1nc(CC(C)O)ns1 (centres undefined) | 29 | –
7 | Cc1oc(-c2cccc(C(F)(F)F)c2)cc1C(=O)Nc1nccs1 | 450 | –
8 | Cc1oc(-c2cccc(C(F)(F)F)c2)cc1C(=O)Nc1nc(CC(C)N2CCOCC2)ns1 (centres undefined) | 32 | –
9 | Cc1oc(-c2cccc(C#N)c2)cc1C(=O)Nc1nc(CN2CCOCC2)ns1 | 16 | inhibition at 10 µM (hERG (KCNH2)): 47.8%
10 | CNC(=O)c1ccc(N2C(=S)N(c3ccc(C#N)c(C(F)(F)F)c3)C(=O)C2(C)C)cc1F [ENZALUTAMIDE] | – | inhibition (INH) [4]: Not_active; IC50 [5]: 520 nM; IC50 (LNCaP C4-2B): 16300 nM; IC50 (LNCaP [1]): 12400 nM; IC50 (LNCaP C4-2): 27700 nM; IC50 (LNCaP [6]): 27700 nM
11 | Cc1oc(-c2cccc(C(F)(F)F)c2)cc1C(=O)Nc1nc(CC(C)N2CCN(C)CC2)ns1 (centres undefined) | 36 | –
12 | Cc1oc(-c2cccc(OC(F)(F)F)c2)cc1C(=O)Nc1nc(CN2CCOCC2)ns1 | 19 | inhibition at 10 µM (hERG (KCNH2)): 47.3%
13 | Cc1oc(-c2cccc(C(F)(F)F)c2)cc1C(=O)Nc1nc(CC(C)N(C)C)ns1 (centres undefined) | 280 | –
14 | Cc1oc(-c2cccc(C(F)(F)F)c2)cc1C(=O)Nc1nc(CN2CCC(C(C)(C)O)CC2)ns1 | 270 | –
15 | Cc1oc(-c2cccc(OC(F)F)c2)cc1C(=O)Nc1nc(CN2CCOCC2)ns1 | 16 | inhibition at 10 µM (hERG (KCNH2)): 68.3%
16 | Cc1oc(-c2ccc(F)c(C(F)(F)F)c2)cc1C(=O)Nc1nc(CN2CCOCC2)ns1 | 26 | –
17 | Cc1oc(-c2cc(C(F)(F)F)ccc2Cl)cc1C(=O)Nc1nc(CN2CCOCC2)ns1 | 29 | inhibition at 10 µM (hERG (KCNH2)): 8%; IC50 (LNCaP [1]): 3270 nM
18 | Cc1oc(-c2cccc(C(F)(F)F)c2F)cc1C(=O)Nc1nc(CN2CCOCC2)ns1 | 200 | –
19 | Cc1oc(-c2cc(F)cc(C(F)(F)F)c2)cc1C(=O)Nc1nc(CN2CCOCC2)ns1 | – | inhibition at 10 µM (hERG (KCNH2)): 16.4%; Activity (NIH3T3): Non-toxic
20 | Cc1oc(-c2cccc(C(F)(F)F)c2)cc1C(=O)Nc1nc(CC(C)N2CCCCC2)ns1 (centres undefined) | 450 | –
21 | CC(=O)Cc1nsc(NC(=O)c2cc(-c3cccc(C(F)(F)F)c3)oc2C)n1 | 150 | –

Now from value to compound, other results behind:

Row | IC50 (Androgen receptor) [nM] | SMILES | further results
22 | 18 | Cc1oc(-c2cc(C(F)(F)F)ccc2F)cc1C(=O)Nc1nc(CN2CCOCC2)ns1 | inhibition at 10 µM (hERG (KCNH2)): 21%; IC50 (LNCaP [1]): 2750 nM
23 | 35 | Cc1oc(-c2ccc(Cl)c(C(F)(F)F)c2)cc1C(=O)Nc1nc(CN2CCOCC2)ns1 | inhibition at 10 µM (hERG (KCNH2)): 51.3%
24 | 22 | COc1cccc(-c2cc(C(=O)Nc3nc(CN4CCOCC4)ns3)c(C)o2)c1 | inhibition at 10 µM (hERG (KCNH2)): 36.9%
25 | 150 | Cc1oc(-c2cccc(C(F)(F)F)c2)cc1C(=O)Nc1nc(CN2CCCC(O)C2)ns1 (centres undefined) | –
26 | 280 | CC(Cc1nsc(NC(=O)c2cc(-c3cccc(C(F)(F)F)c3)oc2C)n1)=C(F)F | –
27 | 24 | Cc1oc(-c2cccc(C(F)(F)F)c2)cc1C(=O)Nc1nc(CC(C)N2CCCC2)ns1 (centres undefined) | inhibition at 10 µM (hERG (KCNH2)): 93.5%
28 | 180 | Cc1oc(-c2cccc(C(F)(F)F)c2)cc1C(=O)Nc1ncns1 | –
29 | 260 | Cc1oc(-c2cc(Cl)cc(C(F)(F)F)c2)cc1C(=O)Nc1nc(CN2CCOCC2)ns1 | –
30 | 50000 | CC(=O)Cc1ccc(NC(=O)c2cc(-c3cccc(C(F)(F)F)c3)oc2C)cc1 | –
31 | 8400 | CC(=O)Cc1nsc(NC(=O)c2cc(-c3cccc(C(F)(F)F)c3)oc2C(F)(F)F)n1 | –
32 | 9200 | CC(=O)Cc1nsc(NC(=O)c2cc(-c3cccc(C(F)(F)F)c3)sc2C)n1 | –
33 | 710 | CC(=O)Cc1nsc(NC(=O)c2coc(-c3cccc(C(F)(F)F)c3)c2)n1 | –
34 | 140 | Cc1oc(-c2cccc(C(F)(F)F)c2)cc1C(=O)Nc1nc(CN2CCC(O)CC2)ns1 | –
35 | 24 | Cc1oc(-c2cccc(C(F)(F)F)c2)cc1C(=O)Nc1nc(CN2CCCCC2)ns1 | inhibition at 10 µM (hERG (KCNH2)): 95.5%
36 | 470 | Cc1oc(-c2cccc(C(F)(F)F)c2)cc1C(=O)Nc1nc(CN2CCC(O)C2)ns1 (centres undefined) | –
